This assay deals with dopamine D1 receptor (Rattus norvegicus, UniProt P18901). In words: competition autoradiography with 3H-SCH […] in rat brain slices.
Chain of dopamine D1 receptor (P18901 whole entry): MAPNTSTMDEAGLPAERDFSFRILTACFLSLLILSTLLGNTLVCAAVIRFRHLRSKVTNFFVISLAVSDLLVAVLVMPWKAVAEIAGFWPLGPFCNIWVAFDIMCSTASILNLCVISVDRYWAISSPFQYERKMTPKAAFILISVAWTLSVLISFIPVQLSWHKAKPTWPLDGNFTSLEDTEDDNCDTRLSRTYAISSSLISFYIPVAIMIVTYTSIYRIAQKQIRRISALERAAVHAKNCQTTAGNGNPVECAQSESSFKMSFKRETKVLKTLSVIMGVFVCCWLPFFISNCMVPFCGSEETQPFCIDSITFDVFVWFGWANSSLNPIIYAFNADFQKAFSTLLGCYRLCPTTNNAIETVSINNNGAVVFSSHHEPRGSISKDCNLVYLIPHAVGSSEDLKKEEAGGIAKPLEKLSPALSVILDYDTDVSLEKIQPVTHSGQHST

Usually Ki stands for a measure of affinity in units of concentration, obtained from inhibition or displacement. Lower therefore signals higher affinity. With `CN1CCc2cc(Cl)c(O)cc2C(c2cccc(NC[C@H](F)[C@@H](O)[C@H](O)[C@H](O)CO)c2)C1` (stereo partly drawn) [compound 7, 7-chloro-8-hydroxy-3-methyl-l-(3’-fluorodeoxyglucaminophenyl)-2,3,4,5-tetrahydro-lH-3-benzazepine], the Ki is 0.0195 µM.

Values taken from paper PMC4469266 (Bioorganic & medicinal chemistry letters, 2015).
